The nature of series [1]: clinical. The arrangement: species or system human. The conditions noted are these: in vivo. The method, then:
An open-label, multiple-dose, single-sequence study to evaluate the effect of steady-state carbamazepine XR, 400 mg once daily, a CYP3A4 substrate and inducer, on the pharmacokinetics of steady-state vilazodone 40 mg tablets once daily, with hardness of more than 10 kp and less than 14 kp, preferably about 12 kp as shown in Table 3 (No Tablet Breakage). Vilazodone was co-administered with carbamazepine XR (extended release formulation). Carbamazepine is an antiepileptic drug approved for the treatment of psychomotor and grand mal seizures is metabolized by CYP3A4, and is a CYP3A4 inducer.
All subjects were healthy, nonsmoking male or female volunteers who were 18-45 (Study 2) years of age. Inclusion and exclusion criteria were typical of the criteria used in pharmacokinetic studies in healthy volunteers as known in the art. Inclusion criteria used included agreement to use an effective measure of contraception, body mass index (BMI)>18 and ≦30 kg/m^2 (BMI=18 allowed), normal or clinically non-significant results on physical examination, medical history, serum chemistry, hematology, and urinalysis; negative hepatitis B antigen and C antibody tests, and negative HIV test at screening. Exclusion criteria included clinically significant electrocardiogram results or QT prolongation, clinically significant disease state, history of alcohol abuse, ingestion of food, drink, or drug that may interfere with CYP enzyme activity (e.g., cruciferous vegetables, caffeine, alcohol), known sensitivity to study drug or other drugs from the same class, and use of prohibited concomitant prescription or over-the counter medications.
All volunteers received 4 treatments (A, B, C, and D) in the same, fixed sequence: Treatment A consisted of vilazodone alone on Days 1-9 and was followed by a 14-day washout, Treatment B was carbamazepine XR alone for 19 days (Days 24-42), Treatment C was vilazodone plus carbamazepine XR for 9 days (Days 43-51), and Treatment D was carbamazepine alone for 3 days (Days 52-54). Once-daily doses of study drug were administered in the morning after breakfast; twice-daily doses were administered in the morning after breakfast and 12 hours later in the evening after dinner Study drug was administered within 30 minutes after the end of the corresponding meal.
Blood samples to determine plasma concentrations of vilazodone, M17 (the metabolite of vilazodone), carbamazepine, and carbamazepine-10,11-epoxide (one of the pharmacologically active metabolites of carbamazepine) were collected into tubes pretreated with K2EDTA. For vilazodone and M17 analyses, blood samples (approximately 6 mL) were collected at pre-dose on Days 1, 7, 8, 49, and 50. […] For the analyses of carbamazepine and carbamazepine-10,11-epoxide, blood samples were collected at pre-dose on Days 24, 40, 41, 49 and 50.
Blood samples were centrifuged at no less than 2500 g for 10 minutes at 4° C. within 30 minutes of the sample draw. Plasma was harvested and transferred to polypropylene tubes and flash frozen in a dry ice bath with isopropyl alcohol or methanol. Samples for vilazodone analyses were stored at approximately −70° C. and analyzed. Samples for carbamazepine analyses were stored at −20° C. and analyzed.
Plasma samples were analyzed for vilazodone, M17, carbamazepine and/or carbamazepine-10,11-epoxide concentrations using liquid chromatography coupled with tandem mass spectrometry (LC/MS/MS). For vilazodone and M17, analytes of interest were detected by electrospray ionization mass spectrometry in the negative ion multiple reaction monitoring mode. The assay was linear in the concentration range of 0.5 to 250 ng/mL for vilazodone and 0.25 to 125 ng/mL for M17.
Based on 50 ìL of human plasma with K2EDTA as the anticoagulant, the lower limit of quantification (LLOQ) was 0.5 ng/mL for vilazodone and 0.25 ng/mL for M17. […]

Series [2] can be described thus: Study 2: single-dose pharmacokinetics in severe hepatic impairment and matched healthy controls. The conditions noted are these: for AUC(0-inf) / Cmax / Tmax / half-life: both, human, plasma, po, 20 mg, vilazodone 20 mg single oral dose; for AUC(0-inf): AUC0-∞. How it is done:
The pharmacokinetics, tolerability, and safety of vilazodone were investigated in two separate trials involving participants with hepatic impairment, compared with healthy controls. An Open-label, parallel-group, single-dose pharmacokinetic studies, a single, oral dose of vilazodone (20 mg with increased hardness) was administered to participants with mild, moderate, or severe hepatic impairment or individually matched controls. Outcomes included pharmacokinetic parameters and safety (vital signs, clinical laboratory evaluations, ECG, and adverse events [AEs]). Plasma samples were analyzed using validated LC/MS/MS methods.
Data from two, open-label, parallel-group, single-dose pharmacokinetic studies investigated single-dose vilazodone (20 mg with increased hardness) in participants with hepatic impairment and normal hepatic function. The first study (Study 1) included participants with mild or moderate hepatic impairment and healthy controls. The second study (Study 2) included participants with severe hepatic impairment or healthy participants. These studies were both designed in accordance with the FDA guidance for evaluation of pharmacokinetics in the presence of hepatic impairment. The differences between the study protocols were minimal, so both methodologies are described together, with any differences noted below.
Participants were men and women, 18 to 70 years of age, with a body mass index (BMI) of 18-42 kg/m^2. Women were not pregnant or breastfeeding and agreed to utilize a medically accepted form of contraception during the study (as did men in Study 2). In Study 2, participants were also required to be non-smokers or light smokers (fewer than 10 cigarettes per day; there was no stipulation in Study 1) and to have a sitting pulse rate of 50-100 bpm at screening and prior to dosing on Day 1. […] Each healthy control was matched with a hepatically impaired participant. Control participants in the Study 1 were matched with a hepatically impaired individual according to age (±10 years), sex, and BMI (±15%). Control participants in Study 2 were matched with a hepatically impaired individual according to age (±5 years), sex, and weight (±10%).
Participants with hepatic dysfunction were classified according to the Child-Pugh hepatic dysfunction staging system as having mild (5-6 points) or moderate (7-9 points) hepatic impairment (Study 1), or severe impairment (10-15 points; Study 2). Participants with severe impairment also had chronic liver disease and/or compensated cirrhosis, as evidenced by liver biopsy, computerized tomography or ultrasonic evidence of hepatic fibrosis, clinical evidence of chronic liver disease, or a colloid shift on a liver-spleen scan. Exclusion criteria included the following: a clinical diagnosis or history of depression; treatment with antidepressants, anxiolytics, psychoactive medications (including herbal supplements), other serotonergic drugs, or drugs that inhibit CYP3A4 (eg, ketoconazole, diltiazem, macrolide antibiotics); a hypersensitivity to vilazodone or other SSRIs or 5-HT agonists; history or evidence of alcohol or substance abuse, cancer, human immunodeficiency virus, hepatitis B (Study 1 and healthy controls, both studies) hepatitis C (healthy controls, both studies), or other clinically significant illnesses or medical conditions. Participants with severe hepatic impairment were excluded if they had bleeding diathesis, advanced ascites requiring large-volume paracentesis within 1 week of dosing, esophageal bleeding within the previous 8 weeks, history of portosystemic shunt or hepatic transplant, or evidence of hepatic encephalopathy, hepatorenal syndrome, or other evidence of rapid hepatic deterioration.
Participants were not allowed to have previously taken vilazodone or participated in any clinical investigation requiring repeated blood draws within 60 days of dosing, or donated blood or plasma within 60 or 30 days, respectively.

Where [3] appears, read: Control matched to Severe Impairment n = 8.
[4] abbreviates: Severe Impairment n = 4 (who did not vomit).

What is called Tmax is the time from dosing to the highest level. Regarding `NC(=O)N1c2ccccc2C=Cc2ccccc21` [Carbamazepine, carbamazepine], the concentration at 42 day in series [1] (both sexes, human, Cavg, ss, Mean (SD)) turned out to be 5500 ng/mL. Moreover, in series [1] (both sexes, human, tmax, Median (min-max)), the Tmax was 10 h.
For orientation: AUC(0-inf) means total exposure, with the tail of the curve extrapolated. Higher therefore signals more exposure. As usually defined, the Cmax is the highest concentration seen after dosing. The term half-life denotes the time in which the quantity being followed falls by half. Take `N#Cc1ccc2[nH]cc(CCCC(=O)O)c2c1` [M17]: the AUC(0-inf) in series [2] (setting [3]) was 51.4 ± 21.4 ng·h/mL; in series [2] (setting [4]) it was 29.9 ± 8.15 ng·h/mL. In addition, the results for the Cmax in series [2] (setting [3]) and in series [2] (setting [4]) were 1.95 ± 0.56 ng/mL and 1.64 ± 0.56 ng/mL, respectively. For the same compound, the Tmax in series [2] (Tmax (mean), Control matched to Severe Impairment n = 8) is 6 ± 4.14 h; in series [2] (Tmax (mean), Severe Impairment n = 4 (who did not vomit)), 4.25 ± 1.26 h; in series [2] (Tmax, Median, Control matched to Severe Impairment n = 8) it was 5 h; in series [2] (Tmax, Median, Severe Impairment n = 4 (who did not vomit)), 4 h. For the same compound, the half-life was 17.4 ± 4.25 h in series [2] (t1/2, Control matched to Severe Impairment n = 8) and 17.8 ± 9.57 h in series [2] (t1/2, Severe Impairment n = 4 (who did not vomit)). In addition, the entries for the “ratio of M17 to vilazodone (AUC0-∞)” value in series [2] (normal controls) and in series [2] (severe hepatic impairment) were 0.07 and 0.05, respectively. The “mean AUC0-∞ lower than in normal controls” value in series [2] (severe impairment (who did not vomit) vs normal controls, vilazodone 20 mg single dose) was “approximately 42%”.
`NC(=O)N1c2ccccc2C2OC2c2ccccc21` (centres unmarked) [carbamazepine-10,11-epoxide]: the “tmax, Median (min-max)” value in series [1] (human) is recorded as 12.0 h. Further, in series [1], the “Cavg, ss, Mean (SD)” value is listed as 0.6 (0.2) μg/mL.

These data come from US20150157575A1, “Pharmaceutical Formulations Comprising Vilazodone” (Forest Laboratories Holdings Ltd., priority 2013, published 2015).
